Data: patent US11192867B2, “Microbiocidal oxadiazole derivatives” (SYNGENTA PARTICIPATIONS AG, priority 2016, dated 2021)

Assays:
Phakopsora pachyrhizi = assay: Fungicidal activity against Phakopsora pachyrhizi / soybean / leaf disc preventative (Asian soybean rust); type: in vivo; settings: foliar, 200 ppm in the applied formulation, soybean leaf disks, vs untreated control, read-out: disease control
Protocol: Leaf disks or leaf segments of various plant species are cut from plants grown in a greenhouse. The cut leaf disks or segments are placed in multiwell plates (24-well format) onto water agar. The leaf disks are sprayed with a test solution before (preventative) or after (curative) inoculation. Compounds to be tested are prepared as DMSO solutions (max. 10 mg/ml) which are diluted to the appropriate concentration with 0.025% Tween20 just before spraying. The inoculated leaf disks or segments are incubated under defined conditions (temperature, relative humidity, light, etc.) according to the respective test system. A single evaluation of disease level is carried out 3 to 14 days after inoculation, depending on the pathosystem. Percent disease control relative to the untreated check leaf disks or segments is then calculated. Soybean leaf disks are placed on water agar in multiwell plates (24-well format) and sprayed with the formulated test compound diluted in water. One day after application leaf discs are inoculated by spraying a spore suspension on the lower leaf surface. After an incubation period in a climate cabinet of 24-36 hours in darkness at 20° C. and 75% rh leaf disc are kept at 20° C. with 12 hours light/12 hours and 75% rh. The activity of a compound is assessed as percent disease control compared to untreated when an appropriate level of disease damage appears in untreated check leaf disks (12 to 14 days after application). The following compounds at 200 ppm in the applied formulation give at least 80% disease control in this test when compared to untreated control leaf disks under the same conditions, which show extensive disease development.

[1] = tested on: Glomerella lagenarium (Colletotrichum lagenarium); assay: Fungicidal activity against Glomerella lagenarium (Colletotrichum lagenarium) liquid culture / cucumber / preventative (anthracnose); type: cell-based; settings: Colletotrichum orbiculare, 72 h; 20 ppm in the applied formulation; liquid culture (PDB), growth inhibition measured photometrically 3 to 4 days after application; vs untreated control; read-out: disease control
Protocol: Mycelia fragments or conidia suspensions of a fungus prepared either freshly from liquid cultures of the fungus or from cryogenic storage, are directly mixed into nutrient broth. DMSO solutions of the test compound (max. 10 mg/ml) are diluted with 0.025% Tween20 by a factor of 50 and 10 μl of this solution is pipetted into a microtiter plate (96-well format). The nutrient broth containing the fungal spores/mycelia fragments is then added to give an end concentration of the tested compound. The test plates are incubated in the dark at 24° C. and 96% relative humidity. The inhibition of fungal growth is determined photometrically after 2 to 7 days, depending on the pathosystem, and percent antifungal activity relative to the untreated check is calculated.
Conidia of the fungus from cryogenic storage are directly mixed into nutrient broth (PDB—potato dextrose broth). After placing a (DMSO) solution of test compound into a microtiter plate (96-well format), the nutrient broth containing the fungal spores is added. The test plates are incubated at 24° C. and the inhibition of growth is measured photometrically 3 to 4 days after application.
The following compounds at 20 ppm in the applied formulation give at least 80% disease control in this test when compared to untreated control under the same conditions, which show extensive disease development.

[2] = tested on: Puccinia recondita f. sp. Tritici; assay: Fungicidal activity against Puccinia recondita f. sp. Tritici / wheat / leaf disc preventative (brown rust); type: in vivo; settings: foliar, 200 ppm in the applied formulation, wheat leaf segments cv. Kanzler, inoculated 1 day after application, vs untreated control, read-out: disease control
Protocol: Leaf disks or leaf segments of various plant species are cut from plants grown in a greenhouse. The cut leaf disks or segments are placed in multiwell plates (24-well format) onto water agar. The leaf disks are sprayed with a test solution before (preventative) or after (curative) inoculation. Compounds to be tested are prepared as DMSO solutions (max. 10 mg/ml) which are diluted to the appropriate concentration with 0.025% Tween20 just before spraying. The inoculated leaf disks or segments are incubated under defined conditions (temperature, relative humidity, light, etc.) according to the respective test system. A single evaluation of disease level is carried out 3 to 14 days after inoculation, depending on the pathosystem. Percent disease control relative to the untreated check leaf disks or segments is then calculated. Wheat leaf segments cv. Kanzler were placed on agar in multiwell plates (24-well format) and sprayed with the formulated test compound diluted in water. The leaf disks were inoculated with a spore suspension of the fungus 1 day after application. The inoculated leaf segments were incubated at 19° C. and 75% relative humidity (rh) under a light regime of 12 hours light/12 hours darkness in a climate cabinet and the activity of a compound was assessed as percent disease control compared to untreated when an appropriate level of disease damage appears in untreated check leaf segments (7 to 9 days after application). The following compounds at 200 ppm in the applied formulation give at least 80% disease control in this test when compared to untreated control leaf disks under the same conditions, which show extensive disease development.

CC(C=NOCc1ccccc1CC(=O)O)NC(=O)c1ccc(-c2noc(C(F)(F)F)n2)cc1 (stereo not drawn) [Compound 1.48, 2-[2-[[2-[[4-[5-(trifluoromethyl)-1,2,4-oxadiazol-3-yl]benzoyl]amino]propylideneamino]oxymethyl]phenyl] acetic acid]
≥ 80%: pest or weed control at 200 ppm (Phakopsora pachyrhizi) | inhibition of growth at 20 ppm [1] | pest or weed control at 200 ppm [2]

C=C(Cl)CON=CC(C)NC(=O)c1ccc(-c2noc(C(F)(F)F)n2)cc1 (stereo not drawn) [Compound 1.56, N-[2-(2-chloroallyloxy-imino)-1-methyl-ethyl]-4-[5-(trifluoromethyl)-1,2,4-oxadiazol-3-yl]benzamide]
≥ 80%: pest or weed control at 200 ppm (Phakopsora pachyrhizi) | inhibition of growth at 20 ppm [1] | pest or weed control at 200 ppm [2]

C=C(Cl)CON=C(C)CNC(=O)c1ccc(-c2noc(C(F)(F)F)n2)cc1 [Compound 1.144, N-[2-(2-chloroallyloxy-imino)propyl]-4-[5-(trifluoromethyl)-1,2,4-oxadiazol-3-yl]benzamide]
≥ 80%: pest or weed control at 200 ppm (Phakopsora pachyrhizi) | inhibition of growth at 20 ppm [1] | pest or weed control at 200 ppm [2]

CC(C=NOC1CCCCO1)NC(=O)c1ccc(-c2noc(C(F)(F)F)n2)cc1 (stereo not drawn) [Compound 1.25, N-(1-methyl-2-tetrahydropyran-2-yloxyimino-ethyl)-4-[5-(trifluoromethyl)-1,2,4-oxadiazol-3-yl]benzamide]
≥ 80%: pest or weed control at 200 ppm (Phakopsora pachyrhizi) | inhibition of growth at 20 ppm [1] | pest or weed control at 200 ppm [2]

CC(C=NOC(C)C)NC(=O)c1ccc(-c2noc(C(F)(F)F)n2)cc1 (stereo not drawn) [Compound 1.50, N-(2-isopropoxyimino-1-methyl-ethyl)-4-[5-(trifluoromethyl)-1,2,4-oxadiazol-3-yl]benzamide]
≥ 80%: pest or weed control at 200 ppm (Phakopsora pachyrhizi) | inhibition of growth at 20 ppm [1] | pest or weed control at 200 ppm [2]

COc1ccc(CON=CCNC(=O)c2ccc(-c3noc(C(F)(F)F)n3)cc2)cc1 [Compound 1.64, N-[2-[(4-methoxyphenyl)methoxyimino]ethyl]-4-[5-(trifluoromethyl)-1,2,4-oxadiazol-3-yl]benzamide]
≥ 80%: pest or weed control at 200 ppm (Phakopsora pachyrhizi) | inhibition of growth at 20 ppm [1] | pest or weed control at 200 ppm [2]

O=C(NCC=NOCC=C(Cl)Cl)c1ccc(-c2noc(C(F)(F)F)n2)cc1 [Compound 1.79, N-[2-(3,3-dichloroallyloxy-imino)ethyl]-4-[5-(trifluoromethyl)-1,2,4-oxadiazol-3-yl]benzamide]
≥ 80%: pest or weed control at 200 ppm (Phakopsora pachyrhizi) | inhibition of growth at 20 ppm [1] | pest or weed control at 200 ppm [2]

CC(CNC(=O)c1ccc(-c2noc(C(F)(F)F)n2)cc1)=NOCC=CCl [Compound 1.121, N-[2-(3-chloroallyloxy-imino)propyl]-4-[5-(trifluoromethyl)-1,2,4-oxadiazol-3-yl]benzamide]
≥ 80%: pest or weed control at 200 ppm (Phakopsora pachyrhizi) | inhibition of growth at 20 ppm [1] | pest or weed control at 200 ppm [2]

CCCCON=CC(C)NC(=O)c1ccc(-c2noc(C(F)(F)F)n2)cc1 (stereo not drawn) [Compound 1.40, N-(2-butoxyimino-1-methyl-ethyl)-4-[5-(trifluoromethyl)-1,2,4-oxadiazol-3-yl]benzamide]
≥ 80%: pest or weed control at 200 ppm (Phakopsora pachyrhizi) | inhibition of growth at 20 ppm [1] | pest or weed control at 200 ppm [2]
